Experimental data reported in PubChem BioAssay AID2060889 (Molecular Pharmacology Branch, DTP, NCI, 2025).

Tested on: LG0567-F671-PDC complex spheroids viability
Assay: Anticancer human tumor LG0567-F671-PDC patient-derived lung adenocarcinoma cell line growth inhibition [RAS]
Details: for viability, T/C: stronger effect = lower value; active means viability on the fitted dose curve at most 10% of control; inactive means the rest
Procedure, shortened: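 Tumour cells grown as complex spheroids with HUVEC endothelial cells and mesenchymal stem cells, treated with RAS pathway inhibitor combinations. Each agent spans half-log steps from near clinical Cmax, or 10 microM where Cmax is unknown.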

[1] = curve of first compound, second compound 0.00316 µM
[2] = curve of first compound, second compound 0.01 µM
[3] = curve of first compound, second compound 0.0316 µM
[4] = curve of first compound, second compound 0.1 µM
[5] = curve of first compound, second compound 0.316 µM
[6] = curve of first compound, second compound 1 µM
[7] = second compound 0.00316 µM, first compound 0.0316 µM
[8] = second compound 0.00316 µM, first compound 0.1 µM
[9] = second compound 0.00316 µM, first compound 0.316 µM
[10] = second compound 0.00316 µM, first compound 1 µM
[11] = second compound 0.01 µM, first compound 0.0316 µM
[12] = second compound 0.01 µM, first compound 0.1 µM
[13] = second compound 0.01 µM, first compound 0.316 µM
[14] = second compound 0.01 µM, first compound 1 µM
[15] = second compound 0.0316 µM, first compound 0.0316 µM
[16] = second compound 0.0316 µM, first compound 0.1 µM
[17] = second compound 0.0316 µM, first compound 0.316 µM
[18] = second compound 0.0316 µM, first compound 1 µM
[19] = second compound 0.1 µM, first compound 0.0316 µM
[20] = second compound 0.1 µM, first compound 0.1 µM
[21] = second compound 0.1 µM, first compound 0.316 µM
[22] = second compound 0.1 µM, first compound 1 µM
[23] = second compound 0.316 µM, first compound 0.0316 µM
[24] = second compound 0.316 µM, first compound 0.1 µM
[25] = second compound 0.316 µM, first compound 0.316 µM
[26] = second compound 0.316 µM, first compound 1 µM
[27] = second compound 1 µM, first compound 0.0316 µM
[28] = second compound 1 µM, first compound 0.1 µM
[29] = second compound 1 µM, first compound 0.316 µM
[30] = second compound 1 µM, first compound 1 µM
[31] = second compound 0.0316 µM, first compound 0.00316 µM
[32] = second compound 0.0316 µM, first compound 0.01 µM
[33] = second compound 0.1 µM, first compound 0.00316 µM
[34] = second compound 0.1 µM, first compound 0.01 µM
[35] = second compound 0.316 µM, first compound 0.00316 µM
[36] = second compound 0.316 µM, first compound 0.01 µM
[37] = second compound 1 µM, first compound 0.00316 µM
[38] = second compound 1 µM, first compound 0.01 µM
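Further: spheroids exposed to compound for seven days before readout.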
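Wherever IC50 is given: luminescence signal used as a proxy for viable cells.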

C[C@@H](NC(=O)c1ncnc(N)c1Cl)c1ncc(C(=O)Nc2cc(C(F)(F)F)c(Cl)cn2)s1 + C=CC(=O)N1CCN(c2nc(OCC3CCCN3C)nc3c(F)c(-c4nc(N)cc(C)c4C(F)(F)F)c(Cl)cc23)C(C)C1
inactive: viability, T/C [7] 23% | viability, T/C [8] 21.9% | viability, T/C [9] 19.2% | viability, T/C [10] 25.3% | viability, T/C (second compound 0.00316 µM, first compound 3.16 µM) 27.4% | viability, T/C (second compound 0.00316 µM, first compound 10 µM) 22.3% | viability, T/C [11] 18.3% | viability, T/C [12] 16.7% | viability, T/C [13] 24.5% | viability, T/C [14] 19.2% | viability, T/C (second compound 0.01 µM, first compound 3.16 µM) 22.8% | viability, T/C (second compound 0.01 µM, first compound 10 µM) 20.4% | viability, T/C [15] 17.1% | viability, T/C [16] 17.3% | viability, T/C [17] 19.1% | viability, T/C [18] 19.3% | viability, T/C (second compound 0.0316 µM, first compound 3.16 µM) 20.1% | viability, T/C (second compound 0.0316 µM, first compound 10 µM) 18% | viability, T/C [19] 16.3% | viability, T/C [20] 14.9% | viability, T/C [21] 15.8% | viability, T/C [22] 18.3% | viability, T/C (second compound 0.1 µM, first compound 3.16 µM) 19% | viability, T/C (second compound 0.1 µM, first compound 10 µM) 18.5% | viability, T/C [23] 15.5% | viability, T/C [24] 16.1% | viability, T/C [25] 16.2% | viability, T/C [26] 18.5% | viability, T/C (second compound 0.316 µM, first compound 3.16 µM) 22.2% | viability, T/C (second compound 0.316 µM, first compound 10 µM) 23% | viability, T/C [27] 16.7% | viability, T/C [28] 17.4% | viability, T/C [29] 20.4% | viability, T/C [30] 17.2% | viability, T/C (second compound 1 µM, first compound 3.16 µM) 19.8% | viability, T/C (second compound 1 µM, first compound 10 µM) 20.8%
< 31.6 nM: IC50 [1] | IC50 [2] | IC50 [3] | IC50 [4] | IC50 [5] | IC50 [6]

CCN1CCN(Cc2ccc(Nc3ncc(F)c(-c4cc(F)c5nc(C)n(C(C)C)c5c4)n3)nc2)CC1 + C=CC(=O)N1CCN(c2nc(OCC3CCCN3C)nc3c(F)c(-c4nc(N)cc(C)c4C(F)(F)F)c(Cl)cc23)C(C)C1
inactive: viability, T/C (second compound 0.00316 µM, first compound 0.00316 µM) 16.6% | viability, T/C (second compound 0.00316 µM, first compound 0.01 µM) 14.9% | viability, T/C [7] 13.7% | viability, T/C [8] 14.2% | viability, T/C [9] 16.6% | viability, T/C [10] 22% | viability, T/C (second compound 0.01 µM, first compound 0.00316 µM) 13.5% | viability, T/C (second compound 0.01 µM, first compound 0.01 µM) 14.1% | viability, T/C [11] 14.4% | viability, T/C [12] 11.8% | viability, T/C [13] 14.9% | viability, T/C [14] 20.2% | viability, T/C [31] 14.8% | viability, T/C [32] 13.1% | viability, T/C [15] 11.7% | viability, T/C [16] 12.4% | viability, T/C [17] 14.3% | viability, T/C [18] 21.2% | viability, T/C [33] 11.7% | viability, T/C [34] 11.5% | viability, T/C [19] 12.4% | viability, T/C [20] 11.5% | viability, T/C [21] 15% | viability, T/C [22] 18.1% | viability, T/C [35] 12.7% | viability, T/C [36] 13.1% | viability, T/C [23] 11.9% | viability, T/C [24] 11.3% | viability, T/C [25] 13.8% | viability, T/C [26] 17.2% | viability, T/C [37] 13.4% | viability, T/C [38] 14.9% | viability, T/C [27] 12.6% | viability, T/C [28] 13.7% | viability, T/C [29] 16.1% | viability, T/C [30] 20.9%
< 3.16 nM: IC50 [1] | IC50 [2] | IC50 [3] | IC50 [4] | IC50 [5] | IC50 [6]

O=C(c1ccc(F)c(F)c1Nc1ccc(I)cc1F)N1CC(O)([C@@H]2CCCCN2)C1 + C#Cc1c(F)ccc2cc(O)cc(-c3ncc4c(N5CC6CCC(C5)N6)nc(OCC56CCCN5CC(F)C6)nc4c3F)c12
8.46 nM: IC50 [4]
13.6 nM: IC50 [3]
< 3.16 nM: IC50 [6] | IC50 (curve of first compound, second compound 3.16 µM) | IC50 (curve of first compound, second compound 10 µM)
5.19 nM: IC50 [5]
inactive: viability, T/C [31] 80.2% | viability, T/C [32] 53.4% | viability, T/C [15] 37% | viability, T/C [16] 23% | viability, T/C [17] 10.1% | viability, T/C [33] 64.2% | viability, T/C [34] 45.9% | viability, T/C [19] 35.4% | viability, T/C [20] 19.2% | viability, T/C [21] 10.7% | viability, T/C [35] 52.8% | viability, T/C [36] 46.8% | viability, T/C [23] 30.7% | viability, T/C [24] 17.1% | viability, T/C [37] 34.5% | viability, T/C [38] 28% | viability, T/C [27] 21.3% | viability, T/C [28] 12.1% | viability, T/C (second compound 3.16 µM, first compound 0.00316 µM) 17.3% | viability, T/C (second compound 3.16 µM, first compound 0.01 µM) 14.1% | viability, T/C (second compound 3.16 µM, first compound 0.0316 µM) 16.4% | viability, T/C (second compound 10 µM, first compound 0.00316 µM) 10.5%
active: viability, T/C [18] 3.93% | viability, T/C [22] 3.38% | viability, T/C [25] 9.98% | viability, T/C [26] 3.87% | viability, T/C [29] 6.87% | viability, T/C [30] 3.06% | viability, T/C (second compound 3.16 µM, first compound 0.1 µM) 7.89% | viability, T/C (second compound 3.16 µM, first compound 0.316 µM) 3.15% | viability, T/C (second compound 3.16 µM, first compound 1 µM) 2.12% | viability, T/C (second compound 10 µM, first compound 0.01 µM) 7.59% | viability, T/C (second compound 10 µM, first compound 0.0316 µM) 5.41% | viability, T/C (second compound 10 µM, first compound 0.1 µM) 2.84% | viability, T/C (second compound 10 µM, first compound 0.316 µM) 1.91% | viability, T/C (second compound 10 µM, first compound 1 µM) 1.49%

Cc1nc(N2CCC3(CC2)COC(C)C3N)c(CO)nc1Sc1ccnc(N)c1Cl (stereo not drawn)
93.7 nM [middle of 4 runs]: IC50 (curve of compound)
inactive: viability, T/C (compound 0.0316 µM) 72.2% [middle of 4 runs] | viability, T/C (compound 0.1 µM) 48.2% [middle of 4 runs] | viability, T/C (compound 0.316 µM) 36.3% [middle of 4 runs] | viability, T/C (compound 1 µM) 28.1% [middle of 4 runs] | viability, T/C (compound 3.16 µM) 21.7% [middle of 4 runs] | viability, T/C (compound 10 µM) 19.9% [middle of 4 runs]
